From patent US20230116972A1, “CD38 MODULATORS AND METHODS OF USE THEREOF” (Cytokinetics, Inc., priority 2021, published 2023)

Legend:
mouse CD38 = biological target: T1, mouse CD38 (Mus musculus, UniProt P56528); test: mouse recombinant CD38 enzyme assay (hydrolysis of NAD+); format: biochemical; details: read-out: mCD38 BioChem IC50
T1 sequence (P56528 1-304): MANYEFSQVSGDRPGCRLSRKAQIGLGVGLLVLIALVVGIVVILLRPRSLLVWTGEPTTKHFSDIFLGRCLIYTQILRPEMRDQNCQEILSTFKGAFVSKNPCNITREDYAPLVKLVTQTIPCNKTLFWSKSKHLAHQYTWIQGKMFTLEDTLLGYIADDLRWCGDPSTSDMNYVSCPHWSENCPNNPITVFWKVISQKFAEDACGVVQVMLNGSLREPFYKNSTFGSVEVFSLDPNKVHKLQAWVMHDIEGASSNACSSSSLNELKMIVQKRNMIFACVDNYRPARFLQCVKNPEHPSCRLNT
Method in brief: (§1)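 Recombinant human or mouse CD38 hydrolyzing NAD+ in a cell-free buffered system. Dose-responses were run for 60 min at ambient temperature. Remaining NAD+ was converted to NADH by alcohol dehydrogenase, which drove diaphorase reduction of resazurin to resorufin, read at 540/590 nm.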

human CD38 = biological target: T2, human CD38 (Homo sapiens, UniProt P28907); test: human recombinant CD38 enzyme assay (hydrolysis of NAD+); format: biochemical; details: human recombinant CD38, 0.4 nM enzyme, 62.5 μM NAD+; read-out: hCD38 BioChem IC50
T2 sequence (P28907 1-300): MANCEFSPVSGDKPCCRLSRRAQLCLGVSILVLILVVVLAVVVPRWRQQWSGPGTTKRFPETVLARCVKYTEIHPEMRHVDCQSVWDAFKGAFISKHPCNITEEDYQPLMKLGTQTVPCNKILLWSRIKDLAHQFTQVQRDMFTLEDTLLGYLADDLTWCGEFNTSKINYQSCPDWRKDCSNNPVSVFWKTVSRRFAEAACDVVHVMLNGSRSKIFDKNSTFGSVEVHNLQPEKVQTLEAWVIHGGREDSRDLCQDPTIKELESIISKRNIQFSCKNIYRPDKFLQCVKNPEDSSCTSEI
Method in brief: as §1

[1] = biological target: T3, endogenous CD38 in HL60 cells (Homo sapiens, UniProt P28907); test: cellular CD38 assay in HL60 cells (cellular NAD levels); format: cell-based; details: all-trans retinoic acid, 24 hours, read-out: hCD38 HL60 ATRA NAD Cell Diaphorase IC50
T3 construct: endogenous in cells; host or cells: HL60 (leukemic cells, treated with all-trans retinoic acid)
T3 sequence (P28907 1-300): T2 sequence (P28907 1-300)
Method in brief: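 HL60 cells (20000/well) were treated with compound in DMSO for 24 h. Cellular NAD was then measured by an enzymatic cycling mix (alcohol dehydrogenase, diaphorase, 40 uM resazurin, 10 uM FMN, 3% ethanol, Triton X-100, pH 8.4).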

| Structure (SMILES) | IC50 (mouse CD38) | IC50 (human CD38) | IC50 [1] |
| --- | --- | --- | --- |
| O=C(N[C@H]1CC[C@H](C(F)F)CC1)c1nccc(-n2ccnc2)n1 [Compound 73, N-((1r,4r)-4-(difluoromethyl)cyclohexyl)-4-(1H-imidazol-1-yl)pyrimidine-2-carboxamide] | 33 nM | 60 nM | 1990 nM |
| Cn1cncc1-c1ccnc(C(=O)Nc2ccc(C(F)(F)F)nc2)n1 [Compound 74, 4-(1-methyl-1H-imidazol-5-yl)-N-(6-(trifluoromethyl)pyridin-3-yl)pyrimidine-2-carboxamide] | 10 nM | 3 nM | 349 nM |
| Cn1cncc1-c1ccnc(C(=O)N[C@H]2CC[C@H](C(F)F)CC2)n1 [Compound 75, N-((1r,4r)-4-(difluoromethyl)cyclohexyl)-4-(1-methyl-1H-imidazol-5-yl)pyrimidine-2-carboxamide] | 19 nM | 41 nM | 1360 nM |
| Cn1cncc1-c1cccc(C(=O)N[C@H]2CC[C@H](C(F)F)CC2)n1 [Compound 77, N-(4-(difluoromethyl)cyclohexyl)-6-(1-methyl-1H-imidazol-5-yl)picolinamide] | 32 nM | 131 nM | 3360 nM |
| O=C(NC1CC2(C1)CC(F)(F)C2)c1ccnc(-n2ccnc2)n1 [Compound 78, N-(6,6-difluorospiro[3.3]heptan-2-yl)-2-(1H-imidazol-1-yl)pyrimidine-4-carboxamide] | 16 nM | 79 nM | 1110 nM |
| O=C(N[C@H]1CC[C@H](C(F)(F)F)CC1)c1ccnc(-n2ccnc2)n1 [Compound 79, 2-(1H-imidazol-1-yl)-N-((1r,4r)-4-(trifluoromethyl)cyclohexyl)pyrimidine-4-carboxamide] | 12 nM | 21 nM | 2330 nM |
| Cn1cncc1-c1nccc(C(=O)NC2CC3(C2)CC(F)(F)C3)n1 [Compound 82, N-(6,6-difluorospiro[3.3]heptan-2-yl)-2-(1-methyl-1H-imidazol-5-yl)pyrimidine-4-carboxamide] | 3 nM | 10 nM | 1080 nM |
| Cn1cncc1-c1nccc(C(=O)N[C@H]2CC[C@H](C(F)(F)F)CC2)n1 [Compound 83, 2-(1-methyl-1H-imidazol-5-yl)-N-((1r,4r)-4-(trifluoromethyl)cyclohexyl)pyrimidine-4-carboxamide] | 6 nM | 11 nM | 2770 nM |
| CO[C@H]1CC[C@H](NC(=O)c2ccnc(-c3cncn3C)n2)CC1 [Compound 84, N-((1r,4r)-4-methoxycyclohexyl)-2-(1-methyl-1H-imidazol-5-yl)pyrimidine-4-carboxamide] | 2 nM | 12 nM | 1110 nM |
| Cn1cncc1-c1nccc(C(=O)N[C@H]2CC[C@H](C)CC2)n1 [Compound 85, 2-(1-methyl-1H-imidazol-5-yl)-N-((1r,4r)-4-methylcyclohexyl)pyrimidine-4-carboxamide] | 2 nM | 7 nM | 765 nM |
| O=C(Nc1ccc(C(F)(F)F)nc1)c1ccnc(-c2cncs2)n1 [Compound 86, 2-(thiazol-5-yl)-N-(6-(trifluoromethyl)pyridin-3-yl)pyrimidine-4-carboxamide] | 219 nM | 194 nM | 8810 nM |
| O=C(N[C@H]1CC[C@H](C(F)F)CC1)c1ccnc(-c2cncs2)n1 [Compound 87, N-((1r,4r)-4-(difluoromethyl)cyclohexyl)-2-(thiazol-5-yl)pyrimidine-4-carboxamide] | 138 nM | 562 nM | 10100 nM |
| O=C(N[C@H]1CC[C@H](C(F)F)CC1)c1cncc(-n2ccnc2)n1 [Compound 89, N-((1r,4r)-4-(difluoromethyl)cyclohexyl)-6-(1H-imidazol-1-yl)pyrazine-2-carboxamide] | 10 nM | 22 nM | 915 nM |
| Cn1cncc1-c1cncc(C(=O)Nc2ccc(C(F)(F)F)nc2)n1 [Compound 90, 6-(1-methyl-1H-imidazol-5-yl)-N-(6-(trifluoromethyl)pyridin-3-yl)pyrazine-2-carboxamide] | 13 nM | 4 nM | 369 nM |
| CO[C@H]1CC[C@H](NC(=O)c2cncc(-c3cncn3C)n2)CC1 [Compound 91, N-((1r,4r)-4-methoxycyclohexyl)-6-(1-methyl-1H-imidazol-5-yl)pyrazine-2-carboxamide] | 19 nM | 38 nM | 2080 nM |
| Cn1cncc1-c1cncc(C(=O)N[C@H]2CC[C@H](C(F)F)CC2)n1 [Compound 92, N-((1r,4r)-4-(difluoromethyl)cyclohexyl)-6-(1-methyl-1H-imidazol-5-yl)pyrazine-2-carboxamide] | 13 nM | 22 nM | 1180 nM |
| O=C(Nc1ccc(C(F)F)nc1)c1ccnc(-n2ccnc2)n1 [Compound 93, N-(6-(difluoromethyl)pyridin-3-yl)-2-(1H-imidazol-1-yl)pyrimidine-4-carboxamide] | 5 nM | 2 nM | 187 nM |
| Cn1cncc1-c1nccc(C(=O)Nc2ccc(C(F)F)nc2)n1 [Compound 94, N-(6-(difluoromethyl)pyridin-3-yl)-2-(1-methyl-1H-imidazol-5-yl)pyrimidine-4-carboxamide] | 2 nM | 2 nM | 241 nM |
| O=C(Nc1ccc(C(F)F)nc1)c1cccc(-n2ccnc2)n1 [Compound 95, N-(6-(difluoromethyl)pyridin-3-yl)-6-(1H-imidazol-1-yl)picolinamide] | 6 nM | 4 nM | 280 nM |
| CO[C@H]1CC[C@H](NC(=O)c2cc(C)cc(-n3ccnc3)n2)CC1 [Compound 96, 6-(1H-imidazol-1-yl)-N-(4-methoxycyclohexyl)-4-methylpicolinamide] | 3 nM | 23 nM | 1630 nM |
| Cc1cc(C(=O)N[C@H]2CC[C@H](C(F)F)CC2)nc(-n2ccnc2)c1 [Compound 97, N-(4-(difluoromethyl)cyclohexyl)-6-(1H-imidazol-1-yl)-4-methylpicolinamide] | 3 nM | 24 nM | 1530 nM |
| CO[C@H]1CC[C@H](NC(=O)c2cc(C)cc(-c3cncn3C)n2)CC1 [Compound 98, N-(4-methoxycyclohexyl)-4-methyl-6-(1-methyl-1H-imidazol-5-yl)picolinamide] | 10 nM | 106 nM | 4740 nM |
| Cc1cc(C(=O)N[C@H]2CC[C@H](C(F)F)CC2)nc(-c2cncn2C)c1 [Compound 99, N-(4-(difluoromethyl)cyclohexyl)-4-methyl-6-(1-methyl-1H-imidazol-5-yl)picolinamide] | 7 nM | 80 nM | 5130 nM |
| CO[C@H]1CC[C@H](NC(=O)c2nc(-n3ccnc3)ccc2C)CC1 [Compound 100, 6-(1H-imidazol-1-yl)-N-(4-methoxycyclohexyl)-3-methylpicolinamide] | 61 nM | 263 nM | 6200 nM |
| Cc1ccc(-n2ccnc2)nc1C(=O)N[C@H]1CC[C@H](C(F)F)CC1 [Compound 101, N-(4-(difluoromethyl)cyclohexyl)-6-(1H-imidazol-1-yl)-3-methylpicolinamide] | 42 nM | 210 nM | 8310 nM |
